Test results as given in patent US20210379046A1, “Methods of Treating Diseases Using Kinase Modulators” (Memorial Sloan Kettering Cancer Center, priority 2018, published 2021).
Entries after “also recorded” stand apart in the source; their conditions may differ.

What was measured:
[1] = system: pERK in TPC1 cells; experiment: Western blot of pERK in TPC1 cells; type: cell-based, human; conditions: TPC1, 24 hrs
Experimental: Cells were seeded in a 60 mm dish or 6 well plates. After the appropriate time point, cells were harvested and lysed and protein was quantified by a Lowry assay (Bio-Rad DC Protein Assay; #5000116). Protein levels were normalized and run on SDS PAGE gels (Bio-Rad). Protein was transferred to a nitrocellulose membrane using semi-dry transfer. Membrane was blocked and incubated with respective antibodies. When needed, secondary antibodies with HRP were incubated for 1 hr. Enhanced chemiluminescent substrate for HRP enzymes was used to image protein levels (Thermo-Fischer; #34095).
Cells were seeded in a 60 mm dish or 6 well plates. After the appropriate time point, cells were harvested, lysed in RIPA buffer (Thermo Instruments) and protein concentration was quantified by a Lowry assay (using the Bio-Rad DC Protein Assay; #5000116 on a Spectramax device from Molecular Devices). Protein loading levels were equalized per lane and separated on SDS gels (Bio-Rad). Protein was transferred to a nitrocellulose membrance using semi-dry transfer (BioRad). Membranes were blocked with Omniblock (American Bio) and incubated with respected antibodies. When needed, secondary antibodies with HRP were incubated for 1 hr. Enhanced chemiluminescent substrate for HRP enzymes was used to image protein levels (Thermo-Fischer; #34095) on a ChemiDoc MP imager with Soft Max Pro software (Biorad).

[2] = system: TPC1 tumors; experiment: TPC1 subcutaneous tumors in NRG mice, tumor HLA and PD-L1 by flow cytometry; type: in vivo; conditions: 7 days
Experimental: Female NSG (NOD.Cg-Prkdc^scidIl2rg^tm1Wj1/SzJ) and NRG (NOD.Cg-Rag1^tm1MomIl2rg^tm1Wj1/SzJ) mice were purchased from the Jackson Laboratory or MSKCC breeding facility at 5-10 weeks old. For RET and ALK experiments, 2.5-6×10^6 tumor cells were subcutaneously injected into the flank of mice and when tumors were palpable, mice were treated daily with drug or vehicles through oral gavage. At day 7, tumors were harvested and flow cytometry was run to determine effect of inhibitors on HLA and PD-L1 on the tumor cells.
To determine if the inhibitors produced similar therapeutic improvements in vivo, mice bearing the TPC1 tumor were treated with RET inhibitors. The highly immunodeficient NRG (NOD-Rag1null IL2rgnull) mice were subcutaneously injected with 2.5×10^6 luciferase tagged TPC1 cells in their right flank. […] Afterwards, cells were immediately harvested and stained with antibodies against HLA-A*02:01 and HLA-ABC.
All animal experiments were conducted in accordance with and the approval of the MSKCC IACUC (Institutional Animal Care and Use Committee) protocols. Female NSG (NOD. Cg-Prkdc^scidIl2rg^tm1Wj1/SzJ) and NRG (NOD.Cg-Rag1^tm1MomIl2rg^tm1Wj1/SzJ) mice were purchased from the Jackson Laboratory at 5-10 weeks old. For experiments in vivo with RET and ALK, 2.5-6×10^6 tumor cells in PBS were subcutaneously injected into the flank of mice. […]

[3] = system: TT cells; experiment: Flow cytometry of cell surface HLA on TT cells; type: cell-based, human; conditions: 72 hrs
Experimental: If adherent cells, they were seeded one day before treatment.

Compound: CCN1CCN(Cc2ccc(NC(=O)Nc3ccc(Oc4cc(NC)ncn4)cc3)cc2C(F)(F)F)CC1 [AST487]
- pERK levels [1]: Inhibition of pERK was seen even at concentrations as low as 10 nM; also recorded: Phospho-ERK levels decreased
- tumor cell surface HLA-A*02 and HLA-A,B,C in vivo ([2]; 10 or 35 mg/kg once daily oral gavage): Dose related increase in HLA levels; also recorded: Dose-related increases in all HLA class I levels; also recorded: increased in a dose related manner
- tumor PD-L1 levels in vivo ([2]; oral gavage): no increase in PD-L1 was seen; also recorded: PD-L1 levels did not change in vivo
- surface HLA [3]: increased in a AST487 dose-related manner; also recorded: increases in surface HLA
